According to PubChem BioAssay AID258 (DTP/NCI, 2004):
Values joined by “and” are separate entries in the source; they are usually repeats but may differ in a detail not shown here. Equal entries are not always repeated. Inconclusive results and toxic doses are left out.

System: CD2F1 mice, L1210 leukemia sc, survival T/C
Assay: NCI In Vivo Anticancer Drug Screen. Data for tumor model L1210 Leukemia (subcutaneous) in CD2F1 (CDF1) mice
Details: endpoint: median survival time, higher = longer survival
Method in brief: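 Compound given to mice bearing transplantable tumor. Survival or tumor size then recorded. Result expressed relative to vehicle-dosed control group as T/C.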

[1] = dose: 50.0 mg/kg/injection, schedule: Q01DX009 (sc), vehicle: saline

Compound: COCCCNc1ncnc2[nH]ncc12
- T/C (dose: 23.0 mg/kg/injection, schedule: Q01DX Z (sc), vehicle: water): 100 % of control
- T/C (dose: 39.0 mg/kg/injection, schedule: Q01DX Z (sc), vehicle: water): 100 % of control
- T/C (dose: 65.0 mg/kg/injection, schedule: Q01DX Z (sc), vehicle: water): 100 % of control
- T/C (dose: 108.0 mg/kg/injection, schedule: Q01DX Z (sc), vehicle: water): 100 % of control
- T/C (dose: 180.0 mg/kg/injection, schedule: Q01DX Z (sc), vehicle: water): 109 % of control
- T/C (dose: 300.0 mg/kg/injection, schedule: Q01DX Z (sc), vehicle: water): 109 % of control

Compound: CO[C@@]12[C@H](COC(N)=O)C3=C(C(=O)C(C)=C(N)C3=O)N1C[C@@H]1N[C@@H]12
- T/C (dose: 0.7 mg/kg/injection, schedule: Q01DX Z (sc), vehicle: saline): 100 % of control
- T/C (dose: 1.17 mg/kg/injection, schedule: Q01DX Z (sc), vehicle: saline): 100 % of control
- T/C (dose: 1.95 mg/kg/injection, schedule: Q01DX Z (sc), vehicle: saline): 100 % of control
- T/C (dose: 3.25 mg/kg/injection, schedule: Q01DX Z (sc), vehicle: saline): 108 % of control
- T/C (dose: 9.03 mg/kg/injection, schedule: Q01DX Z (sc), vehicle: saline): 116 % of control

Compound: CC(=O)NNC(=O)c1ccccn1
- T/C (dose: 12.5 mg/kg/injection, schedule: Q01DX009 (ip), vehicle: Klucel (hydroxypropylcellulose) (HPC)): 102 % of control
- T/C (dose: 25.0 mg/kg/injection, schedule: Q01DX009 (ip), vehicle: Klucel (hydroxypropylcellulose) (HPC)): 102 % of control
- T/C (dose: 25.0 mg/kg/injection, schedule: Q01DX009 (ip), vehicle: saline): 102 % of control
- T/C (dose: 25.0 mg/kg/injection, schedule: Q01DX009 (sc), vehicle: saline): 98 % of control
- T/C (dose: 50.0 mg/kg/injection, schedule: Q01DX009 (ip), vehicle: Klucel (hydroxypropylcellulose) (HPC)): 105 % of control
- T/C (dose: 50.0 mg/kg/injection, schedule: Q01DX009 (ip), vehicle: saline): 104 % of control
- T/C [1]: 105 % of control and 109 % of control
- T/C (dose: 100.0 mg/kg/injection, schedule: Q01DX009 (ip), vehicle: Klucel (hydroxypropylcellulose) (HPC)): 113 % of control
- T/C (dose: 100.0 mg/kg/injection, schedule: Q01DX009 (ip), vehicle: saline): 106 % of control
- T/C (dose: 100.0 mg/kg/injection, schedule: Q01DX009 (sc), vehicle: saline): 110 % of control and 113 % of control
- T/C (dose: 200.0 mg/kg/injection, schedule: Q01DX009 (ip), vehicle: Klucel (hydroxypropylcellulose) (HPC)): 112 % of control
- T/C (dose: 200.0 mg/kg/injection, schedule: Q01DX009 (ip), vehicle: saline): 114 % of control
- T/C (dose: 200.0 mg/kg/injection, schedule: Q01DX009 (sc), vehicle: saline): 111 % of control and 119 % of control

Compound: Nc1nc2n[nH]nc2c(=O)[nH]1
- T/C [1]: 122 % of control
- T/C (dose: 75.0 mg/kg/injection, schedule: Q01DX009 (sc), vehicle: saline): 114 % of control

Compound: NS(=O)(=O)OCCCCCCCOS(N)(=O)=O
- T/C (dose: 30.0 mg/kg/injection, schedule: Q01DX009 (ip), vehicle: saline with Tween-80): 124 % of control
- T/C (dose: 83.3 mg/kg/injection, schedule: Q01DX009 (ip), vehicle: saline with Tween-80): 179 % of control
- T/C (dose: 138.8 mg/kg/injection, schedule: Q01DX009 (ip), vehicle: saline with Tween-80): 118 % of control

Compound: Nc1n[nH]c2ccccc12
- T/C (dose: 25.0 mg/kg/injection, schedule: Q01DX005 (ip), vehicle: acid diluted with saline): 102 % of control
- T/C (dose: 25.0 mg/kg/injection, schedule: Q01DX009 (ip), vehicle: acid diluted with saline): 113 % of control
- T/C (dose: 50.0 mg/kg/injection, schedule: Q01DX005 (ip), vehicle: acid diluted with saline): 106 % of control
- T/C (dose: 50.0 mg/kg/injection, schedule: Q01DX009 (ip), vehicle: acid diluted with saline): 99 % of control
- T/C (dose: 100.0 mg/kg/injection, schedule: Q01DX005 (ip), vehicle: acid diluted with saline): 104 % of control
- T/C (dose: 100.0 mg/kg/injection, schedule: Q01DX009 (ip), vehicle: acid diluted with saline): 103 % of control
- T/C (dose: 200.0 mg/kg/injection, schedule: Q01DX005 (ip), vehicle: acid diluted with saline): 110 % of control

Compound: CSCS(=O)C[C@H](CO)NC(=O)/C=C/c1c(C)[nH]c(=O)[nH]c1=O (some centres not stated)
- T/C (dose: 1.08 mg/kg/injection, schedule: Q01DX Z (sc), vehicle: saline): 110 % of control
- T/C (dose: 1.8 mg/kg/injection, schedule: Q01DX Z (sc), vehicle: saline): 110 % of control
- T/C (dose: 3.0 mg/kg/injection, schedule: Q01DX Z (sc), vehicle: saline): 100 % of control
- T/C (dose: 5.0 mg/kg/injection, schedule: Q01DX Z (sc), vehicle: saline): 90 % of control

Compound: CCOC(=O)C(CC(C)C)NC(=O)C(Cc1ccc(N(CCCl)CCCl)cc1)NC(C)=O (configuration not stated)
- T/C (dose: 1.0 mg/kg/injection, schedule: Q01DX009 (sc), vehicle: Klucel (hydroxypropylcellulose) (HPC)): 102 % of control and 103 % of control
- T/C (dose: 2.0 mg/kg/injection, schedule: Q01DX009 (sc), vehicle: Klucel (hydroxypropylcellulose) (HPC)): 103 % of control and 98 % of control
- T/C (dose: 4.0 mg/kg/injection, schedule: Q01DX009 (sc), vehicle: Klucel (hydroxypropylcellulose) (HPC)): 104 % of control and 105 % of control
- T/C (dose: 8.0 mg/kg/injection, schedule: Q01DX009 (sc), vehicle: Klucel (hydroxypropylcellulose) (HPC)): 107 % of control and 98 % of control
- T/C (dose: 16.0 mg/kg/injection, schedule: Q01DX009 (sc), vehicle: Klucel (hydroxypropylcellulose) (HPC)): 103 % of control and 109 % of control
- T/C (dose: 28.5 mg/kg/injection, schedule: Q01DX009 (sc), vehicle: Klucel (hydroxypropylcellulose) (HPC)): 110 % of control
- T/C (dose: 32.0 mg/kg/injection, schedule: Q01DX009 (sc), vehicle: Klucel (hydroxypropylcellulose) (HPC)): 100 % of control and 112 % of control
- T/C (dose: 42.7 mg/kg/injection, schedule: Q01DX009 (sc), vehicle: Klucel (hydroxypropylcellulose) (HPC)): 121 % of control
- T/C (dose: 64.0 mg/kg/injection, schedule: Q01DX009 (sc), vehicle: Klucel (hydroxypropylcellulose) (HPC)): 118 % of control and 124 % of control
- T/C (dose: 113.8 mg/kg/injection, schedule: Q01DX009 (sc), vehicle: Klucel (hydroxypropylcellulose) (HPC)): 113 % of control
- T/C (dose: 128.0 mg/kg/injection, schedule: Q01DX009 (sc), vehicle: Klucel (hydroxypropylcellulose) (HPC)): 113 % of control and 122 % of control
- T/C (dose: 170.7 mg/kg/injection, schedule: Q01DX009 (sc), vehicle: Klucel (hydroxypropylcellulose) (HPC)): 120 % of control
- T/C (dose: 384.0 mg/kg/injection, schedule: Q01DX009 (sc), vehicle: Klucel (hydroxypropylcellulose) (HPC)): 158 % of control

Compound: CN(C)c1nc(N(C)C)nc(N(C)C)n1
- T/C (dose: 19.0 mg/kg/injection, schedule: Q01DX009 (ip), vehicle: saline with Tween-80): 97 % of control
- T/C (dose: 20.0 mg/kg/injection, schedule: Q01DX009 (ip), vehicle: saline with Tween-80): 106 % of control
- T/C (dose: 20.0 mg/kg/injection, schedule: Q01DX009 (sc), vehicle: saline): 107 % of control
- T/C (dose: 37.5 mg/kg/injection, schedule: Q01DX009 (ip), vehicle: saline with Tween-80): 91 % of control
- T/C (dose: 40.0 mg/kg/injection, schedule: Q01DX009 (ip), vehicle: saline with Tween-80): 102 % of control
- T/C (dose: 40.0 mg/kg/injection, schedule: Q01DX009 (sc), vehicle: saline): 100 % of control
- T/C (dose: 75.0 mg/kg/injection, schedule: Q01DX009 (ip), vehicle: saline with Tween-80): 104 % of control
- T/C (dose: 80.0 mg/kg/injection, schedule: Q01DX009 (ip), vehicle: saline with Tween-80): 106 % of control
- T/C (dose: 80.0 mg/kg/injection, schedule: Q01DX009 (sc), vehicle: saline): 100 % of control
- T/C (dose: 150.0 mg/kg/injection, schedule: Q01DX009 (ip), vehicle: saline with Tween-80): 91 % of control
- T/C (dose: 160.0 mg/kg/injection, schedule: Q01DX009 (ip), vehicle: saline with Tween-80): 109 % of control and 110 % of control
- T/C (dose: 160.0 mg/kg/injection, schedule: Q01DX009 (sc), vehicle: saline): 113 % of control
- T/C (dose: 240.0 mg/kg/injection, schedule: Q01DX009 (ip), vehicle: saline with Tween-80): 90 % of control

Compound: S=c1nc[nH]c2nc[nH]c12.[Ag]
- T/C (dose: 100.0 mg/kg/injection, schedule: Q01DX Z (sc), vehicle: water): 100 % of control
- T/C (dose: 200.0 mg/kg/injection, schedule: Q01DX Z (sc), vehicle: water): 100 % of control
- T/C (dose: 400.0 mg/kg/injection, schedule: Q01DX Z (sc), vehicle: water): 100 % of control
- T/C (dose: 800.0 mg/kg/injection, schedule: Q01DX Z (sc), vehicle: water): 100 % of control
- T/C (dose: 1600.0 mg/kg/injection, schedule: Q01DX Z (sc), vehicle: water): 100 % of control

Compound: O=C(CSc1ncnc2nc[nH]c12)c1ccccc1
- T/C (dose: 38.9 mg/kg/injection, schedule: Q01DX Z (sc), vehicle: methylcellulose (MC)): 95 % of control
- T/C (dose: 64.8 mg/kg/injection, schedule: Q01DX Z (sc), vehicle: methylcellulose (MC)): 95 % of control
- T/C (dose: 108.0 mg/kg/injection, schedule: Q01DX Z (sc), vehicle: methylcellulose (MC)): 100 % of control
- T/C (dose: 180.0 mg/kg/injection, schedule: Q01DX Z (sc), vehicle: methylcellulose (MC)): 100 % of control
- T/C (dose: 300.0 mg/kg/injection, schedule: Q01DX Z (sc), vehicle: methylcellulose (MC)): 100 % of control
- T/C (dose: 500.0 mg/kg/injection, schedule: Q01DX Z (sc), vehicle: methylcellulose (MC)): 100 % of control
